The test system of this assay is Colo205-TCF/LEF-Luciferase (Luc) tumor. Briefly: In vivo inhibition of TCF/LEF reporter activity in Colo-205 tumors. More on the design: concentration or dose not given beside the values. The conditions noted are these: TCF/LEF luciferase reporter in Colo-205 tumors, nu/nu mice, oral gavage. The essentials:
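Female nu/nu mice carried subcutaneous Colo205-TCF/LEF-luciferase tumours (200–500 mm^3), n=4 per group. Compound was given by oral gavage in 1:3:5:1 EtOH:DMSO:PEG-400:H2O at 10 ml/kg, with vehicle as control. Luciferase activity in tumour lysates (Steady-Glo) was normalised to BCA protein.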
Background: In a reporter assay the amount or activity of a reporter protein is the signal.

SMILES strings stand for the structures.

On to `Cc1nc(N[C@H]2CC[C@H](Oc3ccc(C(F)(F)F)nc3)C2)nc2c1NC(=O)[C@H](C)N2C` (single isomer, unassigned) [Compound 377], for which the “Percent Remaining Activity at 8 hrs after Dosing” value (“Percent Remaining Activity” below) came to 33%.
In the case of `Cc1nc(NCc2cnn(Cc3ccc(F)cc3)c2)nc2c1NC(=O)[C@H](C)N2C` [Compound 4, (7S)-2-(((1-(4-fluorobenzyl)-1H-pyrazol-4-yl)methyl)amino)-4,7,8-trimethyl-7,8-dihydropteridin-6(5H)-one], the “Percent Remaining Activity” value worked out at 23%.
Turning to `COc1c(F)cc(Cn2cc(CNc3nc(C)c4c(n3)N(C)[C@@H](C)C(=O)N4)cn2)cc1F` [Compound 46, (7S)-2-(((1-(3,5-difluoro-4-methoxybenzyl)-1H-pyrazol-4-yl)methyl)amino)-4,7,8-trimethyl-7,8-dihydropteridin-6(5H)-one], the “Percent Remaining Activity” value is given as 20%.
Next, `Cc1nc(NCc2cnn(Cc3ccc(F)nc3)c2)nc2c1NC(=O)[C@H](C)N2C` [Compound 77]: 30%.
Next, `Cc1nc(NCc2cnn(Cc3cccc(C(C)C)c3)c2)nc2c1NC(=O)[C@H](C)N2C` [Compound 80, (7S)-2-(((1-(3-isopropylbenzyl)-1H-pyrazol-4-yl)methyl)amino)-4,7,8-trimethyl-7,8-dihydropteridin-6(5H)-one]: 34%; `Cc1nc(NCc2cnn(Cc3cc(F)c(F)c(F)c3)c2)nc2c1NC(=O)[C@H](C)N2C` [Compound 122, (7S)-4,7,8-trimethyl-2-(((1-(3,4,5-trifluorobenzyl)-1H-pyrazol-4-yl)methyl)amino)-7,8-dihydropteridin-6(5H)-one]: 16%.
Next, `Cc1nc(NCc2cnn(Cc3ccc(C(F)(F)F)cc3)c2)nc2c1NC(=O)[C@H](C)N2C` [Compound 149, (7S)-4,7,8-trimethyl-2-(((1-(4-(trifluoromethyl)benzyl)-1H-pyrazol-4-yl)methyl)amino)-7,8-dihydropteridin-6(5H)-one]: 17%.
On to `Cc1nc(NCc2cnn([C@@H]3C[C@@H]3c3ccc(F)cc3)c2)nc2c1NC(=O)[C@H](C)N2C` [Compound 154, (7S)-2-(((1-((1R,2R)-2-(4-fluorophenyl)cyclopropyl)-1H-pyrazol-4-yl)methyl)amino)-4,7,8-trimethyl-7,8-dihydropteridin-6(5H)-one], for which the “Percent Remaining Activity” value stood at 24%.
Next, `Cc1nc(NCc2cnn(Cc3cc(C(F)(F)F)nn3C)c2)nc2c1NC(=O)[C@H](C)N2C` [Compound 160, (7S)-4,7,8-trimethyl-2-(((1-((1-methyl-3-(trifluoromethyl)-1H-pyrazol-5-yl)methyl)-1H-pyrazol-4-yl)methyl)amino)-7,8-dihydropteridin-6(5H)-one]: 18%.
Turning to `Cc1nc(NCc2cnn([C@@H](C)c3ccc(C(F)(F)F)nc3)c2)nc2c1NC(=O)[C@H](C)N2C` [Compound 174, (7S)-4,7,8-Trimethyl-2-(((1-((S)-1-(6-(trifluoromethyl)pyridin-3-yl)ethyl)-1H-pyrazol-4-yl)methyl)amino)-7,8-dihydropteridin-6(5H)-one], the “Percent Remaining Activity” value was 22%.
As for `CC[C@H]1C(=O)Nc2c(C)nc(NCc3cnn(Cc4ccc(C(F)(F)F)nc4)c3)nc2N1C` [Compound 186, (7S)-7-ethyl-4,8-dimethyl-2-(((1-((6-(trifluoromethyl)pyridin-3-yl)methyl)-1H-pyrazol-4-yl)methyl)amino)-7,8-dihydropteridin-6(5H)-one], the “Percent Remaining Activity” value amounted to 23%.
As for `Cc1nc(C(F)(F)F)ccc1Cn1cc(CNc2nc(C)c3c(n2)N(C)[C@@H](C)C(=O)N3)cn1` [Compound 188, (S)-4,7,8-trimethyl-2-(((1-((2-methyl-6-(trifluoromethyl)pyridin-3-yl)methyl)-1H-pyrazol-4-yl)methyl)amino)-7,8-dihydropteridin-6(5H)-one], the “Percent Remaining Activity” value is on record as 15%.
Next, `Cc1nc(NCc2cnn(Cc3ccnc(C(F)(F)F)c3)c2)nc2c1NC(=O)[C@H](C)N2C` [Compound 207, (7S)-4,7,8-trimethyl-2-(((1-((2-(trifluoromethyl)pyridin-4-yl)methyl)-1H-pyrazol-4-yl)methyl)amino)-7,8-dihydropteridin-6(5H)-one]: 18%; `Cc1nc(N[C@H]2C[C@H](Oc3cc(F)c(F)c(F)c3)C2)nc2c1NC(=O)[C@H](C)N2C` [Compound 246, (7S)-4,7,8-trimethyl-2-((trans-3-(3,4,5-trifluorophenoxy)cyclobutyl)amino)-7,8-dihydropteridin-6(5H)-one]: 18%.
Next, `Cc1nc(N[C@H]2C[C@@H](COc3cc(F)c(F)c(F)c3)C2)nc2c1NC(=O)[C@H](C)N2C` [Compound 257, (7S)-4,7,8-Trimethyl-2-((cis-3-((3,4,5-trifluorophenoxy)methyl)cyclobutyl)-amino)-7,8-dihydropteridin-6(5H)-one]: 30%; `Cc1nc(N[C@@H]2CC[C@@H](Oc3cc(F)c(F)c(F)c3)C2)nc2c1N(C)C(=O)[C@H](C)N2C` [Compound 272, (S)-4,5,7,8-tetramethyl-2-(((1R,3R)-3-(3,4,5-trifluorophenoxy)cyclopentyl)amino)-7,8-dihydropteridin-6(5H)-one]: 14%.
Next, `Cc1nc(N[C@H]2C[C@H](Oc3ccc(C(F)(F)F)nc3)C2)nc2c1NC(=O)[C@H](C)N2C` [Compound 324, (7S)-4,7,8-trimethyl-2-((trans-3-((6-(trifluoromethyl)pyridin-3-yl)oxy)cyclobutyl)amino)-7,8-dihydropteridin-6(5H)-one]: 16%; `Cc1nc(N[C@H]2C[C@@H](Sc3cc(F)c(F)c(F)c3)C2)nc2c1NC(=O)[C@H](C)N2C` [Compound 332, (7S)-4,7,8-trimethyl-2-((cis-3-((3,4,5-trifluorophenyl)thio)cyclobutyl)amino)-7,8-dihydropteridin-6(5H)-one]: 51%; `Cc1nc(N[C@H]2C[C@H](Oc3ccnc(C(F)(F)F)c3)C2)nc2c1NC(=O)[C@H](C)N2C` [Compound 335, (7S)-4,7,8-trimethyl-2-((trans-3-((2-(trifluoromethyl)pyridin-4-yl)oxy)cyclobutyl)amino)-7,8-dihydropteridin-6(5H)-one]: 18%.
Consider `Cc1nc(NCc2cnn(Cc3ccc(C(F)(F)F)nc3)c2)nc2c1NC(=O)[C@H](C(C)C)N2C` [Compound 383, (7S)-7-isopropyl-4,8-dimethyl-2-(((1-((6-(trifluoromethyl)pyridin-3-yl)methyl)-1H-pyrazol-4-yl)methyl)amino)-7,8-dihydropteridin-6(5H)-one], for which the “Percent Remaining Activity” value is reported as 36%.
The same measure for `Cc1nc(NCc2cnn(Cc3ccc(F)nc3)c2)nc2c1NC(=O)[C@H](C(C)C)N2C` [Compound 384, (7S)-2-(((1-((6-fluoropyridin-3-yl)methyl)-1H-pyrazol-4-yl)methyl)amino)-7-isopropyl-4,8-dimethyl-7,8-dihydropteridin-6(5H)-one]: 14%.

For the origin of these results see US20230312587A1, “PTERIDINONE COMPOUNDS AND USES THEREOF” (Vertex Pharmaceutical Incorporated, priority 2018, published 2023).
